Literature values as cited in article PMC9177108 (The Oncologist, 2022).

Experiments:
patients with NPC = conditions: 33 patients with NPC; cited from earlier work
NPC patients = conditions: 58 NPC patients, cited from earlier work
[1] = test system: patients with advanced NPC; conditions: first-line regimen; cited from earlier work
[2] = test system: relapsed and refractory patients with NPC; conditions: cited from earlier work
patients with RM-NPC = conditions: 37 recruited patients with RM-NPC; cited from earlier work

For Cc1ccc(Nc2nccc(N(C)c3ccc4c(C)n(C)nc4c3)n2)cc1S(N)(=O)=O [pazopanib], the ORR (patients with NPC) is given as 6.1%.

For CCN(CC)CCN1CCc2[nH]c(/C=C3\C(=O)Nc4ccc(F)cc43)c(C)c2C1=O [Famitinib], the ORR (NPC patients) is given as 6.9%, the “median PFS” value (NPC patients) is given as 3.2 months and the DCR (NPC patients; at 3 months) is given as 32.8%.

For cisplatin and 5-fluorouracil, the “median PFS” value [1] is listed as 11-14 months and the response rate [1] is listed as 66-78%.

In the case of N#CC1(c2ccc(NC(=O)c3cccnc3NCc3ccncc3)cc2)CCCC1 [apatinib], the ORR ([2]; 51 patients (16/51), no response to first- or second-line chemotherapy) is listed as 31.4%, the OS ([2]; 51 patients) is listed as 16 months and the “median PFS” value ([2]; 51 patients) is listed as 9 months.

For CNC(=O)c1ccccc1Sc1ccc2c(/C=C/c3ccccn3)n[nH]c2c1 [Axitinib], the DCR (patients with RM-NPC) is given as 78.4, the ORR (patients with RM-NPC) is given as 19% and the “median PFS” value (patients with RM-NPC) is given as 5 months. The “overall survival (OS)” value (patients with RM-NPC) was 10 months.
